# According to patent US11596648B2, “Emollient topical disinfectants” (priority 2016, dated 2023):
# Where two headings read alike, the source gives them in different places.
# What was measured:
# [1] = Iodine vapor detection with iodine sensitive paper disc in vial lid (Example 4); conditions: acetate buffer; cyclodextrin 50 mM
# Description: Solutions of these cyclodextrins were prepared in acetate buffer or propylene glycol, both containing molecular iodine as follows. Cyclodextrins were weighed and added to vials. Saturated solutions of molecular iodine (Alfa Aesar 14248 Lot 104Z003) were then prepared in either: (a) […] acetate buffer (pH 4.5); or (b) propylene glycol.
# Aliquots of each solution of the different cyclodextrins were added to vials to a final cyclodextrin concentration of 50 mM. […] The screw-top lid of each vial was fitted with an iodine sensitive paper disc (Fluka #37215, Lot SZBF1310V) that fit tightly in the lid so the paper was exposed to the atmosphere in the vial which would allow the paper to react with molecular iodine that was in the vapor phase.
# At time points of: one (1) hour; six (6) hours; and twenty-four (24) hours, the color of the indicator paper on the inside of the screw-top lids were examined and photographed.
# [2] = Potassium iodide starch paper coloration versus time, vapor pressure of molecular iodine (Example 5); conditions: cyclodextrin 50 mM; for reduction in vapor pressure of molecular iodine in the acetate buffer (ranking): 0.1M acetate buffer pH 4.5; for ability to reduce the vapor pressure of molecular iodine in an aqueous environment (conclusion): acetate buffer
# Excerpt: Alpha cyclodextrin (cat. number C4642, Sigma Life Sciences, Lot 2X SLBK4630V, CAS 10016-20-3), beta cyclodextrin (cat. number C4767, Sigma Life Sciences, Lot MKBV2085V, CAS 7585-39-9), gamma cyclodextrin (cat. number C4892, Sigma Life Sciences, Lot SLBL4156V, CAS 17465-86-0), methyl beta cyclodextri, (cat. number C4555, Sigma Life Sciences, Lot WXBC0745V, CAS 128446-36-6) and 2-hydroxypropyl-beta-cyclodextrin (cat. number H107, Sigma Life Sciences, Lot WXBC0083V, CAS 128446-35-5) were weighed into vials.
# Aliquots of saturated molecular iodine in either propylene glycol or 0.1M acetate buffer (pH 4.5) were added to the vials to yield a final cyclodextrin concentration of 50 mM. The samples were lightly vortexed to dissolve the cyclodextrins. Control vials were prepared consisting of saturated iodine in either propylene glycol or 0.1M acetate buffer pH 4.5.
# Analytical potassium iodide starch paper (Fluka #37215, Lot SZBF1310V) was cut into circle and placed inside the screw-top lid of the vials in a manner that held the paper in place once the lid was screwed onto the vial.
# Provided in FIGS. 2A-2L are pictures of the starch paper taken at different time points to document the color of the starch paper versus time of exposure to the atmosphere inside of the vial. The operating assumption was that the color of the starch paper would be proportional to the time of exposure to the concentration of molecular iodine in the atmosphere inside of the vial.
# The concentration of molecular iodine in the atmosphere inside of the vial is proportional to the vapor pressure of dissolved molecular iodine in the liquid phase.
# [3] = rats, 1 hour; cited from earlier work
# [4] = cited from earlier work
# [5] = cited from earlier work; remark: listed apart in the source
# [6] = Viscosity with Brookfield DV2T viscometer (Example 7); assay type: physicochemical; conditions: for viscosity: extrapolated to zero shear
# Description: Viscosity was measured using a Brookfield DV2T viscometer which allowed for the precise control of the temperature at which the viscosity was measured. The Brookfield DV2T was programmed to measured viscosity at different shear rates by systematically ramping the spindle (CP-40 or CP-52) speed up and then down as shown in FIG. 4A for propylene glycol at 25° C.
# The viscosity values were fitted to a curve and extrapolated to the zero shear value to arrive at a final estimate for viscosity.
# One series of samples was prepared without molecular iodine and a second series was prepared that contained 800 ppm molecular iodine. The viscosity of these samples was measured as described above using an up-down rate ramp program. The results were fitted to an Ostwald model, i.e. stress versus shear rate curve fit, and the consistency constant was reported as the viscosity.
compound,measurement,setting,value
methyl-β-cyclodextrin,effect on vapor pressure of molecular iodine in an aqueous environment,[1],reduces the vapor pressure of molecular iodine
same,reduction in vapor pressure of molecular iodine in the acetate buffer (ranking),[2],greatest reduction in vapor pressure
same,ability to reduce the vapor pressure of molecular iodine in an aqueous environment (conclusion),[2],most effective
"II [Molecular iodine, molecular iodine]",lowest lethal atmospheric concentration,[3],80 ppm
same,maximum iodine that can build up in a closed container,"[4]; 25° C., standard atmospheric pressure",≤ 394 ppm
same,vapor pressure,[4]; 25° C.,0.3 mm
same,vapor pressure,[4]; 38.7° C.,1 mm
same,permissible exposure limit,"[5]; NIOSH, OSHA",0.1 ppm
same,concentration with severe eye irritation,[5]; after 2 minutes,1.63 ppm
same,concentration at which humans can work undisturbed,"[5]; iodine vapor, inhalation",0.1 ppm
same,concentration at which humans work with difficulty,"[5]; iodine vapor, inhalation",0.15-0.2 ppm
same,concentration that humans cannot tolerate,"[5]; iodine vapor, inhalation",≥ 0.3 ppm
same,level at which odor is detected,[5]; iodine vapor,about 0.9 ppm
hydroxypropyl-β-cyclodextrin [hyroxypropyl-β-cyclodextrin],color of iodine indicator paper / iodine vapor at 24 hours,[1],clearly detected
same,effect on vapor pressure of molecular iodine in an aqueous environment,[1],reduces the vapor pressure of molecular iodine
same,reduction in vapor pressure of molecular iodine in the acetate buffer (ranking),[2],greatest reduction in vapor pressure
same,ability to reduce the vapor pressure of molecular iodine in an aqueous environment (conclusion),[2],most effective
CC(O)CO (stereo not drawn) [propylene glycol],viscosity,[6]; 25° C.,59 cP
same,viscosity,[6]; 33° C.,95 cP
same,flow behaviour,[6]; viscosity versus shear,behaves like a Newtonian fluid
"OC[C@H]1O[C@@H]2O[C@H]3[C@H](O)[C@@H](O)[C@@H](O[C@H]4[C@H](O)[C@@H](O)[C@@H](O[C@H]5[C@H](O)[C@@H](O)[C@@H](O[C@H]6[C@H](O)[C@@H](O)[C@@H](O[C@H]7[C@H](O)[C@@H](O)[C@@H](O[C@H]8[C@H](O)[C@@H](O)[C@@H](O[C@H]9[C@H](O)[C@@H](O)[C@@H](O[C@H]1[C@H](O)[C@H]2O)O[C@@H]9CO)O[C@@H]8CO)O[C@@H]7CO)O[C@@H]6CO)O[C@@H]5CO)O[C@@H]4CO)O[C@@H]3CO [gamma cyclodextrin, γ-cyclodextrin]",color of iodine indicator paper / iodine vapor at 6 hours,[1],clearly detected
same,color of iodine indicator paper / iodine vapor at 24 hours,[1],deeply stained
OC[C@H]1O[C@@H]2O[C@H]3[C@H](O)[C@@H](O)[C@@H](O[C@H]4[C@H](O)[C@@H](O)[C@@H](O[C@H]5[C@H](O)[C@@H](O)[C@@H](O[C@H]6[C@H](O)[C@@H](O)[C@@H](O[C@H]7[C@H](O)[C@@H](O)[C@@H](O[C@H]8[C@H](O)[C@@H](O)[C@@H](O[C@H]1[C@H](O)[C@H]2O)O[C@@H]8CO)O[C@@H]7CO)O[C@@H]6CO)O[C@@H]5CO)O[C@@H]4CO)O[C@@H]3CO [β-cyclodextrin],color of iodine indicator paper / iodine vapor at 6 hours,[1],clearly detected
same,color of iodine indicator paper / iodine vapor at 24 hours,[1],deeply stained
